Source: PubChem BioAssay (NCI)
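Values below derive from 48-hour exposures of cells grown in 96-well plates, with endpoints linearly interpolated between the two concentrations bracketing the appropriate inhibition level. Definition used: TGI = concentration required for complete inhibition of growth.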 Where a SMILES comes first, the peptide text is derived from it. The star is where a group is joined. Boc = CC(C)(C)OC(=O)*; OBn = c1ccc(CO*)cc1

Experiments:
Experiment in all cases: inhibition of tumour cell growth, NCI panel, 48 h
HCT-15 colon = tested on: HCT-15 colon
OVCAR-8 ovarian = tested on: OVCAR-8 ovarian
NCI-H460 lung = tested on: NCI-H460 lung
HCT-116 colon = tested on: HCT-116 colon
U251 CNS = tested on: U251 CNS
HT29 colon = tested on: HT29 colon
SK-MEL-2 melanoma = tested on: SK-MEL-2 melanoma
CCRF-CEM leukemia = tested on: CCRF-CEM leukemia
OVCAR-4 ovarian = tested on: OVCAR-4 ovarian
A498 renal = tested on: A498 renal
SNB-75 CNS = tested on: SNB-75 CNS
786-0 renal = tested on: 786-0 renal
TK-10 renal = tested on: TK-10 renal
COLO 205 colon = tested on: COLO 205 colon
DU-145 prostate = tested on: DU-145 prostate
UACC-62 melanoma = tested on: UACC-62 melanoma
SF-539 CNS = tested on: SF-539 CNS
SK-MEL-28 melanoma = tested on: SK-MEL-28 melanoma
NCI/ADR-RES ovarian = tested on: NCI/ADR-RES ovarian
OVCAR-3 ovarian = tested on: OVCAR-3 ovarian
HL-60(TB) leukemia = tested on: HL-60(TB) leukemia
SF-295 CNS = tested on: SF-295 CNS
M14 melanoma = tested on: M14 melanoma
NCI-H23 lung = tested on: NCI-H23 lung
OVCAR-5 ovarian = tested on: OVCAR-5 ovarian
HOP-62 NSCLC = tested on: HOP-62 NSCLC
SF-268 CNS = tested on: SF-268 CNS
HOP-92 NSCLC = tested on: HOP-92 NSCLC
SN12C renal = tested on: SN12C renal
SNB-19 CNS = tested on: SNB-19 CNS
HCC-2998 colon = tested on: HCC-2998 colon
CAKI-1 renal = tested on: CAKI-1 renal
SW-620 colon = tested on: SW-620 colon
EKVX NSCLC = tested on: EKVX NSCLC
MCF7 breast = tested on: MCF7 breast
MDA-MB-435 = tested on: MDA-MB-435
K-562 leukemia = tested on: K-562 leukemia
IGROV1 ovarian = tested on: IGROV1 ovarian
MDA-N = tested on: MDA-N
PC-3 prostate = tested on: PC-3 prostate
UO-31 renal = tested on: UO-31 renal
NCI-H522 lung = tested on: NCI-H522 lung
RPMI-8226 leukemia = tested on: RPMI-8226 leukemia
T-47D breast = tested on: T-47D breast
MDA-MB-231 breast = tested on: MDA-MB-231 breast
UACC-257 melanoma = tested on: UACC-257 melanoma
SR leukemia = tested on: SR leukemia
SK-OV-3 ovarian = tested on: SK-OV-3 ovarian
LOX IMVI melanoma = tested on: LOX IMVI melanoma
MALME-3M melanoma = tested on: MALME-3M melanoma
ACHN renal = tested on: ACHN renal
BT-549 breast = tested on: BT-549 breast
RXF 393 renal = tested on: RXF 393 renal
NCI-H226 lung = tested on: NCI-H226 lung
A549 NSCLC = tested on: A549 NSCLC

Measured: TGI

CC(NC(=O)C(NC(=O)OC(C)(C)C)C(C)C)C(=O)N1CCCC1C(=O)NCC(=O)NC(C(=O)NCC(=O)OCc1ccccc1)C(C)C (centres undefined) (Boc-VAPGVG-OBn; configuration not given here)
not listed: BT-549 breast | RXF 393 renal | NCI-H226 lung | A549 NSCLC
> 100 µM: all other assays above

COc1cc2cc(C(=O)N3CC(COS(C)(=O)=O)c4c3cc(N)c3ccccc43)[nH]c2c(OC)c1OC (centres undefined)
1.28 µM: SK-OV-3 ovarian
0.0928 µM: CAKI-1 renal
< 0.01 µM: TK-10 renal | DU-145 prostate | HCC-2998 colon | EKVX NSCLC | MDA-MB-231 breast | ACHN renal
> 100 µM: NCI-H460 lung | HCT-116 colon | SK-MEL-2 melanoma | CCRF-CEM leukemia | 786-0 renal | COLO 205 colon | SK-MEL-28 melanoma | OVCAR-3 ovarian | HL-60(TB) leukemia | OVCAR-5 ovarian | HOP-62 NSCLC | SF-268 CNS | MCF7 breast | IGROV1 ovarian | MDA-N | UO-31 renal | RPMI-8226 leukemia | T-47D breast | UACC-257 melanoma | LOX IMVI melanoma | A549 NSCLC
0.25 µM: BT-549 breast
0.228 µM: NCI-H226 lung
0.0377 µM: RXF 393 renal
30.5 µM: PC-3 prostate
